Assay results: ChEMBL document CHEMBL1201862, “PubChem BioAssay data set” (2004)
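A five-concentration, 48-hour dose response in 96-well plates underlies each endpoint, interpolated linearly between surrounding concentrations. At the GI50, growth is halved.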 Active and inactive are the calls of the source. Rule as the data show it: active = GI50 up to about 1.1 µM and inactive = higher.

Experiments:
Test in all cases: inhibition of tumour cell growth, NCI panel, 48 h
MDA-MB-231 = test system: MDA-MB-231
T47D = test system: T47D
IGROV-1 = test system: IGROV-1
SF-539 = test system: SF-539
MDA-MB-435 = test system: MDA-MB-435
SK-MEL-2 = test system: SK-MEL-2
M14 = test system: M14
RPMI-8226 = test system: RPMI-8226
SW-620 = test system: SW-620
SNB-19 = test system: SNB-19
HCC 2998 = test system: HCC 2998
UACC-257 = test system: UACC-257
DU-145 = test system: DU-145
HL-60 = test system: HL-60
MCF7 = test system: MCF7
MDA-N = test system: MDA-N
CAKI-1 = test system: CAKI-1
SNB-75 = test system: SNB-75
NCI-H23 = test system: NCI-H23
LOX IMVI = test system: LOX IMVI

Row | SMILES | GI50 (MDA-MB-231) | GI50 (T47D) | GI50 (IGROV-1) | GI50 (SF-539) | GI50 (MDA-MB-435) | GI50 (SK-MEL-2) | GI50 (M14) | GI50 (RPMI-8226) | GI50 (SW-620) | GI50 (SNB-19) | GI50 (HCC 2998) | GI50 (UACC-257) | GI50 (DU-145) | GI50 (HL-60) | GI50 (MCF7) | GI50 (MDA-N) | GI50 (CAKI-1) | GI50 (SNB-75) | GI50 (NCI-H23) | GI50 (LOX IMVI)
1 | C[N+](C)(C)CCC(=O)N1C/C(=C\c2ccccc2)C(=O)/C(=C/c2ccccc2)C1 | 3.22 µM (inactive) | 2.09 µM (inactive) | 5.12 µM (inactive) | 5.06 µM (inactive) | 2.29 µM (inactive) | 15.8 µM (inactive) | 2.72 µM (inactive) | 0.385 µM (active) | 0.904 µM (active) | 5.38 µM (inactive) | 3.47 µM (inactive) | 12.2 µM (inactive) | 16.8 µM (inactive) | 2.27 µM (inactive) | 1.45 µM (inactive) | 1.9 µM (inactive) | 6.49 µM (inactive) | 7.83 µM (inactive) | 10.4 µM (inactive) | 1.7 µM (inactive)
2 | Clc1ccc(C(OCn2ccnc2)c2nc3ccccc3[nH]2)c(Cl)c1 (stereo not given) | 84.5 µM (inactive) | 39.1 µM (inactive) | 43.3 µM (inactive) | 35.8 µM (inactive) | 25.2 µM (inactive) | 42.7 µM (inactive) | 54.2 µM (inactive) | 24.6 µM (inactive) | 26.9 µM (inactive) | 89.3 µM (inactive) | 45.5 µM (inactive) | 35.5 µM (inactive) | 64.4 µM (inactive) | 22.1 µM (inactive) | 38.2 µM (inactive) | 37.5 µM (inactive) | 87.3 µM (inactive) | 28.9 µM (inactive) | 32.2 µM (inactive) | 32.4 µM (inactive)
3 | O=C(c1ccccc1)c1ccc2c(c1)nc1n2C(c2c(Cl)cccc2Cl)SC1 (stereo not given) | > 100 µM (inactive) | 14.7 µM (inactive) | > 100 µM (inactive) | > 100 µM (inactive) | 59.2 µM (inactive) | > 100 µM (inactive) | 48.2 µM (inactive) | 52.4 µM (inactive) | > 100 µM (inactive) | 77.1 µM (inactive) | > 100 µM (inactive) | 95.5 µM (inactive) | > 100 µM (inactive) | 39.4 µM (inactive) | 39.4 µM (inactive) | 41.7 µM (inactive) | 70.6 µM (inactive) | 28.4 µM (inactive) | 47.4 µM (inactive) | 44 µM (inactive)
4 | CSc1cc(Cl)c(C(=O)Nc2ccccc2)cc1S(=O)(=O)n1ccnc1O | > 100 µM (inactive) | > 100 µM (inactive) | > 100 µM (inactive) | > 100 µM (inactive) | > 100 µM (inactive) | > 100 µM (inactive) | > 100 µM (inactive) | > 100 µM (inactive) | > 100 µM (inactive) | > 100 µM (inactive) | > 100 µM (inactive) | > 100 µM (inactive) | > 100 µM (inactive) | > 100 µM (inactive) | > 100 µM (inactive) | > 100 µM (inactive) | > 100 µM (inactive) | > 100 µM (inactive) | > 100 µM (inactive) | > 100 µM (inactive)
5 | O=S(=O)(O)/C(=N\c1cccc(Cc2ccccc2)c1)Nc1cccc(Cc2ccccc2)c1 | 17.8 µM (inactive) | 15.8 µM (inactive) | 16.6 µM (inactive) | 16.3 µM (inactive) | 20.1 µM (inactive) | 21.6 µM (inactive) | 16.4 µM (inactive) | 23.8 µM (inactive) | 23.7 µM (inactive) | 21.2 µM (inactive) | 18.8 µM (inactive) | 24.2 µM (inactive) | 17 µM (inactive) | 33.4 µM (inactive) | 19.2 µM (inactive) | 20.4 µM (inactive) | 42.5 µM (inactive) | 16.1 µM (inactive) | 16.4 µM (inactive) | 12.9 µM (inactive)
6 | CN(C)c1ccc2c(SCC(=O)OCC(=O)[C@@]3(O)CC[C@H]4[C@@H]5CCC6=CC(=O)C=C[C@]6(C)[C@H]5C(=O)C[C@@]43C)c3ccc(N(C)C)cc3nc2c1 | 27.5 µM (inactive) | 17.4 µM (inactive) | 6.52 µM (inactive) | 6.19 µM (inactive) | 17 µM (inactive) | 24.5 µM (inactive) | 27.8 µM (inactive) | 14.6 µM (inactive) | 6.19 µM (inactive) | 23.7 µM (inactive) | 6 µM (inactive) | 15.7 µM (inactive) | 11.5 µM (inactive) | 1.24 µM (inactive) | 7.03 µM (inactive) | 14.4 µM (inactive) | 23.6 µM (inactive) | 20.6 µM (inactive) | 16.7 µM (inactive) | 26.7 µM (inactive)
7 | CC1(C)[C@@H]2CC[C@@]1(C)C1(S[S+]1[O-])C21Cc2ccccc2C1 (stereo not given in full) | 17.3 µM (inactive) | 21.6 µM (inactive) | 17.2 µM (inactive) | 24.5 µM (inactive) | 29.4 µM (inactive) | 17.2 µM (inactive) | 33.4 µM (inactive) | 21 µM (inactive) | 14.7 µM (inactive) | > 100 µM (inactive) | 18.5 µM (inactive) | 20.9 µM (inactive) | 21.3 µM (inactive) | 18.1 µM (inactive) | 22.1 µM (inactive) | 17.1 µM (inactive) | 20.4 µM (inactive) | 31 µM (inactive) | 31.8 µM (inactive) | 15.1 µM (inactive)
